Source: paper PMC3158843 (ACS chemical biology, 2011)
No end group written: not given here.

Columns and labels:
[1] = system: JNK on mitochondria of HeLa cells; settings: N-acetylcysteine; earlier data, ref "Recent data from our lab"; cited from earlier work
HeLa cells [2] = test: Mitochondrial membrane potential, JC-1; type: cell-based
[3] = system: c-jun phosphorylation in HeLa cells; test: c-jun phosphorylation in anisomycin-treated HeLa cells, Western blot; type: cell-based; settings: 25µM anisomycin, 0-120 min
[4] = system: JNK phosphorylation in HeLa cells; test: JNK phosphorylation in anisomycin-treated HeLa cells, Western blot; type: cell-based; settings: 25µM anisomycin
[5] = system: JNK on mitochondria of HeLa cells; type: cell-based
HeLa cells [6] = settings: 25µM anisomycin, 4 hours
JNK = settings: cited from earlier work
[7] = target: JNK1α1 (active, recombinant) (human) (UniProt P45983)
JNK3α1 [8] = target: T1, JNK3α1 (Homo sapiens, UniProt P53779)
[9] = system: recombinant JNK1α1 / mitochondria of JNK-null fibroblasts; set-up: species or system murine; settings: TI-JIP 1µM, Tat-SabKIM1 10µM
HeLa cells [10] = test: Cytochrome c release, ELISA; type: cell-based; settings: 25µM anisomycin 4 hours; Tat-SabKIM1 10µM, TI-JIP 1µM, siRNA 50nM
JNK3α1 [11] = target: T1, JNK3α1; test: Kinase-Glo phosphorylation assay, JNK3α1; type: biochemical; settings: 4-parameter nonlinear regression, 30°C, 60 min
JNK3α1 [12] = target: T1, JNK3α1; test: Fluorescence polarization assay for peptide binding

CC(=O)N[C@@H](CS)C(=O)O [N-acetylcysteine]
JNK translocation to the mitochondria [1]: inhibits JNK translocation to the mitochondria

COc1ccc(C[C@H]2NC[C@H](O)[C@H]2OC(C)=O)cc1 [anisomycin]
increase in percent depolarized mitochondria (HeLa cells [2]; 25µM anisomycin, 45 min, vs DMSO-treated cells): 40–50%
c-jun levels [3]: remained constant
c-jun phosphorylation on serine 73 [3]: increased at 15–30 minutes, peaking at 45–60 min, then decreasing following 60 minutes
JNK phosphorylation ([4]; 0-120 min): increased JNK phosphorylation between 15 and 30 minutes, and then JNK phosphorylation decreased after 30 minutes
total JNK abundance ([4]; two hour time course): unchanged
phospho-JNK on the mitochondria ([5]; 25µM anisomycin): as early as 5 minutes and peaked at 30 minutes
Sab abundance on the mitochondria ([5]; 25µM anisomycin stress): did not have altered abundance
JNK species found on the mitochondria ([5]; 25µM anisomycin, Western blot): only the 54kDa species was found on the mitochondria
cell death (HeLa cells [6]): 50%
decrease in viability (HeLa cells [6]; vs DMSO-treated cells): ~ 50%

AVVRPGSLDLR [Sab KIM1 motif]
inhibition of JNK phosphorylation of c-jun / transcription factors (JNK; ref [15]): little, if any impact

Sab KIM1 peptide: Sab KIM1 motif examined earlier as an inhibitor of JNK mediated c-jun phosphorylation (GFESLSVPSPLDLSGPRVVAPPRRRQRRKKRG; not fully specified; retro-inverso configuration; C-terminal amide (-NH2))
impact on c-jun phosphorylation (JNK; ref [18]): did not impact c-jun phosphorylation

Tat-TI-JIP (peptide)
IC50 of inhibition of JNK1α1 phosphorylation of c-jun (1–79) (Kinase-Glo assay) [7]: 0.034 µM
IC50 of inhibition of JNK3α1 phosphorylation of ATF2 (Kinase-Glo assay) (JNK3α1 [8]): 0.027 µM
IC50 of inhibition of JNK3α1 phosphorylation of Sab protein (Kinase-Glo assay) (JNK3α1 [8]): 0.018 µM
IC50 of inhibition of JNK3α1 phosphorylation of c-jun (Kinase-Glo assay) (JNK3α1 [8]): 0.038 µM

YGRKKRRQRRRRPKRPTTLNLF-NH2 [Tat-TI-JIP]
mitochondrial membrane potential (MMP) dissipation (HeLa cells [2]; JC-1, 25µM anisomycin 45 min, Tat-SabKIM1 10µM, TI-JIP 1µM, siRNA 50nM): decreased the amount of mitochondria with dissipating MMP
levels of Sab on isolated mitochondria [9]: did not alter the levels of Sab
Ki (JNK; read-out: Ki, inhibition of JNK activity versus ATF-2, ref [19], [20]): 0.025 µM
inhibition of JNK catalytic activity with respect to substrate binding (JNK; ref [19]–[21]): potent inhibitor
cytochrome c release from the mitochondria (HeLa cells [10]): capable of reducing cytochrome c release
IC50 (JNK3α1 [11]; IC50 -vs-Sab, JNK3α1, substrate Sab): 0.018 ± 0.009 µM
IC50 (JNK3α1 [11]; IC50 -vs-c-jun, JNK3α1, substrate c-jun): 0.038 ± 0.012 µM
Sab expression on mitochondria of HeLa cells with peptide ([5]; 25µM anisomycin 30 min, TI-JIP 1µM, Tat-SabKIM1 10µM): without impacting Sab expression
Kd (JNK3α1 [12]): 0.45 ± 0.06 µM
affinity of JNK3α1 compared to the Sab peptide (JNK3α1 [12]; greater affinity for JIP peptide vs Sab peptide, fluorescence polarization): 25 -fold
